Experimental data from patent US20260015358A1, “BICYCLIC DERIVATIVES, COMPOSITIONS AND USES THEREOF” (Danatlas Pharmaceuticals Co., Ltd., priority 2023, published 2026).

Legend:
[1] = biological target: T1, WRN [UniPro: Q14191 (WRN_HUMAN), N500-C946] (Homo sapiens (Human), UniProt Q14191); assay: WRN ATPase assay (ADP-Glo); assay type: biochemical; conditions: WRN enzymatic activity assay
[2] = biological target: T1, WRN [UniPro: Q14191 (WRN_HUMAN), N500-C946]; assay: WRN unwinding assay (FORKF DNA, fluorescence); assay type: biochemical; conditions: Table 14

T1 sequence (Q14191 500-946): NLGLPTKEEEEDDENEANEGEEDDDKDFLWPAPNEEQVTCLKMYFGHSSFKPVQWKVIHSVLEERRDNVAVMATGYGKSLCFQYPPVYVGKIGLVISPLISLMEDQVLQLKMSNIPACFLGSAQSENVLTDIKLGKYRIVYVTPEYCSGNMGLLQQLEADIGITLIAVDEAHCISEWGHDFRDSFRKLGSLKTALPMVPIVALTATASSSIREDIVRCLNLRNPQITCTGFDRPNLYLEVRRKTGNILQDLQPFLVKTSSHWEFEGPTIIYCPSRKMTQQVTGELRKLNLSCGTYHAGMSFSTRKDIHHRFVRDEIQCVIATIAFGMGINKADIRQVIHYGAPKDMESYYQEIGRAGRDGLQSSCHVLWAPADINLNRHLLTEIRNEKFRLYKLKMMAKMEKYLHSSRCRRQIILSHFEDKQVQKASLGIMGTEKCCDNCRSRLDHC

SMILES | IC50 [1] [µM] | IC50 [2] [µM]
CCc1c(N2CCN(C(=O)c3[nH]cnc3C(F)(F)F)CC2)c(=O)n2nc(C3=CCOCC3)nc2n1CC(=O)Nc1ccc(C(F)(F)F)cc1Cl [Example 31, N-(2-Chloro-4-(trifluoromethyl)phenyl)-2-(2-(3,6-dihydro-2H-pyran-4-yl)-5-ethyl-7-oxo-6-(4-(4-(trifluoromethyl)-1H-imidazole-5-carbonyl)piperazin-1-yl)-[1,2,4]triazolo[1,5-a]pyrimidin-4(7H)-yl)acetamide] | 0.1 to 1 | < 0.1
CCc1c(N2CCN(C(=O)c3nn(C)c(=O)[nH]c3=O)CC2)c(=O)n2nc(C3=CCOCC3)nc2n1CC(=O)Nc1ccc(C(F)(F)F)cc1Cl [Example 58, N-(2-Chloro-4-(trifluoromethyl)phenyl)-2-(2-(3,6-dihydro-2H-pyran-4-yl)-5-ethyl-6-(4-(2-methyl-3,5-dioxo-2,3,4,5-tetrahydro-1,2,4-triazine-6-carbonyl)piperazin-1-yl)-7-oxo-[1,2,4]triazolo[1,5-a]pyrimidin-4(7H)-yl)acetamide] | < 0.1 | < 0.1
CCc1c(N2CCN(C(=O)c3ccn4nccc4c3O)CC2)c(=O)n2nc(C3=CCOCC3)nc2n1CC(=O)Nc1ccc(C(F)(F)F)cc1Cl [Example 200, N-(2-Chloro-4-(trifluoromethyl)phenyl)-2-(2-(3,6-dihydro-2H-pyran-4-yl)-5-ethyl-6-(4-(4-hydroxypyrazolo[1,5-a]pyridine-5-carbonyl)piperazin-1-yl)-7-oxo-[1,2,4]triazolo[1,5-a]pyrimidin-4(7H)-yl)acetamide] | < 0.1 | < 0.1
CCc1c(N2CCN(C(=O)CNC(=O)NCC3CC3)CC2)c(=O)n2nc(C3=CCOCC3)nc2n1CC(=O)Nc1ccc(C(F)(F)F)cc1Cl [Example 190, N-(2-Chloro-4-(trifluoromethyl)phenyl)-2-(6-(4-(((cyclopropylmethyl)carbamoyl)glycyl)piperazin-1-yl)-2-(3,6-dihydro-2H-pyran-4-yl)-5-ethyl-7-oxo-[1,2,4]triazolo[1,5-a]pyrimidin-4(7H)-yl)acetamide] | < 0.1 | < 0.1
CCc1c(N2CCN(C(=O)CNC(=O)c3nccs3)CC2)c(=O)n2nc(N3CCOCC3)nc2n1CC(=O)Nc1ccc(C(F)(F)F)cc1Cl [Example 248, N-(2-(4-(4-(2-((2-Chloro-4-(trifluoromethyl)phenyl)amino)-2-oxoethyl)-5-ethyl-2-morpholino-7-oxo-4,7-dihydro-[1,2,4]triazolo[1,5-a]pyrimidin-6-yl)piperazin-1-yl)-2-oxoethyl)thiazole-2-carboxamide] | < 0.1 | < 0.1
CCc1c(N2CCN(C(=O)c3cnc4[nH]ccc4c3O)CC2)c(=O)n2nc(C3=CCOCC3)nc2n1CC(=O)Nc1ccc(C(F)(F)F)cc1Cl [Example 42, N-(2-Chloro-4-(trifluoromethyl)phenyl)-2-(2-(3,6-dihydro-2H-pyran-4-yl)-5-ethyl-6-(4-(4-hydroxy-1H-pyrrolo[2,3-b]pyridine-5-carbonyl)piperazin-1-yl)-7-oxo-[1,2,4]triazolo[1,5-a]pyrimidin-4(7H)-yl)acetamide] | < 0.1 | < 0.1
CCc1c(N2CCN(C(=O)c3cc4ccn(C)c4cc3O)CC2)c(=O)n2nc(C3=CCOCC3)nc2n1CC(=O)Nc1ccc(C(F)(F)F)cc1Cl [Example 80, N-(2-Chloro-4-(trifluoromethyl)phenyl)-2-(2-(3,6-dihydro-2H-pyran-4-yl)-5-ethyl-6-(4-(6-hydroxy-1-methyl-1H-indole-5-carbonyl)piperazin-1-yl)-7-oxo-[1,2,4]triazolo[1,5-a]pyrimidin-4(7H)-yl)acetamide] | 0.1 to 1 | < 0.1

Next, values leading:

IC50 [1] [µM] | IC50 [2] [µM] | SMILES
0.1 to 1 | 0.1 to 1 | CCc1c(N2CCN(C(=O)CNC(=O)c3ccc(NC)cc3F)CC2)c(=O)n2nc(C3=CCOCC3)nc2n1CC(=O)Nc1ccc(C(F)(F)F)cc1Cl [Example 380, N-(2-(4-(4-(2-((2-Chloro-4-(trifluoromethyl)phenyl)amino)-2-oxoethyl)-2-(3,6-dihydro-2H-pyran-4-yl)-5-ethyl-7-oxo-4,7-dihydro-[1,2,4]triazolo[1,5-a]pyrimidin-6-yl)piperazin-1-yl)-2-oxoethyl)-2-fluoro-4-(methylamino)benzamide]
< 0.1 | < 0.1 | CCc1c(N2CCN(C(=O)CNC(=O)c3nc(C)ncc3O)CC2)c(=O)n2nc(C3=CCOCC3)nc2n1CC(=O)Nc1ccc(C(F)(F)F)cc1Cl [Example 368, N-(2-(4-(4-(2-((2-Chloro-4-(trifluoromethyl)phenyl)amino)-2-oxoethyl)-2-(3,6-dihydro-2H-pyran-4-yl)-5-ethyl-7-oxo-4,7-dihydro-[1,2,4]triazolo[1,5-a]pyrimidin-6-yl)piperazin-1-yl)-2-oxoethyl)-5-hydroxy-2-methylpyrimidine-4-carboxamide]
< 0.1 | < 0.1 | CCc1c(N2CCN(C(=O)CNC(=O)c3ccccc3F)CC2)c(=O)n2nc(N3CCOCC3)nc2n1CC(=O)Nc1ccc(C(F)(F)F)cc1F [Example 254, N-(2-(4-(5-Ethyl-4-(2-((2-fluoro-4-(trifluoromethyl)phenyl)amino)-2-oxoethyl)-2-morpholino-7-oxo-4,7-dihydro-[1,2,4]triazolo[1,5-a]pyrimidin-6-yl)piperazin-1-yl)-2-oxoethyl)-2-fluorobenzamide]
0.1 to 1 | < 0.1 | CCC(=O)N1CCN(c2c(CC)n(CC(=O)Nc3ccc(C(F)(F)F)cc3Cl)c3nc(C4=CCOCC4)nn3c2=O)CC1 [Example 27, N-(2-Chloro-4-(trifluoromethyl)phenyl)-2-(2-(3,6-dihydro-2H-pyran-4-yl)-5-ethyl-7-oxo-6-(4-propionylpiperazin-1-yl)-[1,2,4]triazolo[1,5-a]pyrimidin-4(7H)-yl)acetamide]
< 0.1 | < 0.1 | CCc1c(N2CCN(C(=O)c3c(O)nn4c(Cl)cccc34)CC2)c(=O)n2nc(C3=CCOCC3)nc2n1CC(=O)Nc1ccc(C(F)(F)F)cc1Cl [Example 198, 2-(6-(4-(7-Chloro-2-hydroxypyrazolo[1,5-a]pyridine-3-carbonyl)piperazin-1-yl)-2-(3,6-dihydro-2H-pyran-4-yl)-5-ethyl-7-oxo-[1,2,4]triazolo[1,5-a]pyrimidin-4(7H)-yl)-N-(2-chloro-4-(trifluoromethyl)phenyl)acetamide]
< 0.1 | < 0.1 | CCc1c(N2CCN(C(=O)C(=O)Nc3nc(C)co3)CC2)c(=O)n2nc(C3=CCOCC3)nc2n1CC(=O)Nc1ccc(C(F)(F)F)cc1Cl [Example 353, 2-(4-(4-(2-((2-Chloro-4-(trifluoromethyl)phenyl)amino)-2-oxoethyl)-2-(3,6-dihydro-2H-pyran-4-yl)-5-ethyl-7-oxo-4,7-dihydro-[1,2,4]triazolo[1,5-a]pyrimidin-6-yl)piperazin-1-yl)-N-(4-methyloxazol-2-yl)-2-oxoacetamide]
< 0.1 | < 0.1 | CCc1c(N2CCN(C(=O)CNC(=O)c3ccc(F)cc3)CC2)c(=O)n2nc(C3=CCOCC3)nc2n1CC(=O)Nc1ccc(C(F)(F)F)cc1Cl [Example 98, N-(2-(4-(4-(2-((2-Chloro-4-(trifluoromethyl)phenyl)amino)-2-oxoethyl)-2-(3,6-dihydro-2H-pyran-4-yl)-5-ethyl-7-oxo-4,7-dihydro-[1,2,4]triazolo[1,5-a]pyrimidin-6-yl)piperazin-1-yl)-2-oxoethyl)-4-fluorobenzamide]
